Assay results taken from patent US20230151003A1, “COMPOUNDS AND METHODS OF USE” (Exelixis, Inc., priority 2020, published 2023).

How the values were obtained:
AXL = target: T1, AXL (Homo sapiens, UniProt P30530); assay: AXL autophosphorylation ELISA in A-172 cells; format: cell-based; conditions: Table 3 Cellular Activities, Gas6-stimulated, phospho-AXL ELISA
T1 construct: endogenous in cells; host or cells: A-172 glioblastoma cells (ATCC #CRL-1620)
T1 sequence (P30530 26-894): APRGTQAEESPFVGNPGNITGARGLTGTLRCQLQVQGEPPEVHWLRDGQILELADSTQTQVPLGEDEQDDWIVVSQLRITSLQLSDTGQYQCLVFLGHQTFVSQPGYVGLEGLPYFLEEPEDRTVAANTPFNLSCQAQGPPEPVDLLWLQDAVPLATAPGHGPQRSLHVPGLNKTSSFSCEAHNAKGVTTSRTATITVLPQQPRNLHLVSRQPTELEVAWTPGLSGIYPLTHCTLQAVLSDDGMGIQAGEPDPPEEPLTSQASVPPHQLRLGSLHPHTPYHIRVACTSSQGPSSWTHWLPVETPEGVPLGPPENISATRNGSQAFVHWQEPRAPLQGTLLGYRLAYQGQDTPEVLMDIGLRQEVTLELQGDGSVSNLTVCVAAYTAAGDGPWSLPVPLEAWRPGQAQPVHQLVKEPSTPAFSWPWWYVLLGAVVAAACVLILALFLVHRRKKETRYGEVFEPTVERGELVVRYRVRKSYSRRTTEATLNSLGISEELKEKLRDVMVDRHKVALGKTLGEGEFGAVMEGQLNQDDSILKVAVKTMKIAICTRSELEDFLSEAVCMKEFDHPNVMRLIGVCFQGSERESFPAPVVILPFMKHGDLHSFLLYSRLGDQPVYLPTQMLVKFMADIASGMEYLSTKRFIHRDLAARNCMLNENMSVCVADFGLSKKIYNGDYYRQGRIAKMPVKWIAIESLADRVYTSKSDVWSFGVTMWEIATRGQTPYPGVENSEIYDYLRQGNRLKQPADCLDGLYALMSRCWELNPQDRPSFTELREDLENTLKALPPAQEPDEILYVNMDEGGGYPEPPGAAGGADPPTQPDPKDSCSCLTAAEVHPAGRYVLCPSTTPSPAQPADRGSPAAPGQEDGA
Description: A-172 glioblastoma cells (ATCC #CRL-1620) were seeded at 2.5×10^5 cells/well onto 24-well plates (Greiner #662165), in DMEM (Thermo Fisher #11995-040) containing 10% FBS (Thermo Fisher #26140-079), 1% MEM NEAA (Thermo Fisher #11140-050), 1% GlutaMax (Thermo Fisher #35050-061), and 1% Penicillin Streptomycin (Thermo Fisher #15140-122). A-172 cells were incubated at 37° C., 5% CO2 for 24 h and then starved for 24 h in serum-free medium. Test compounds were serially diluted to produce an 8-point dose curve in fresh serum-free medium to a final concentration of 0.3% DMSO (vehicle) and added to the cells and incubated for 1 h. Cells were then stimulated with 1 μg/mL recombinant human Gas6 (R&D Systems #885-GSB-500) for 15 min, washed with cold PBS, and immediately lysed with 150 μL of cold 1× lysis buffer [20 mM Tris, 137 mM sodium chloride, 2 mM EDTA, 10% glycerol, 1% NP-40 alternative, 1 mM activated sodium orthovanadate, 1 mM PefaBloc SC (Sigma-Aldrich #11429868001), protease/phosphatase inhibitor tablet (Thermo Fisher #A32959)]. Lysates were collected and 100 μL/well added into the human phospho-AXL DuoSet IC ELISA (R&D Systems #DYC2228-2). Assay was performed according to manufacturer's instructions and sample phospho-AXL concentrations were extrapolated using human phospho-AXL control (R&D Systems #841645) as a standard. Positive control wells (100% activity) contained Gas6-stimulated, DMSO-treated cell lysates. Negative control wells (0% activity) contained Gas6-stimulated, reference inhibitor-treated cell lysates. IC50 values were calculated by nonlinear regression analysis using a 4-parameter logistic curve fit in ActivityBase XE (IDBS).

KDR = KDR (Homo sapiens, UniProt P35968); assay: KDR autophosphorylation ELISA in HUVEC cells; format: cell-based; parameters: endogenous in cells; host or cells: HUVEC (Lonza #C2519A); conditions: Table 3 Cellular Activities, VEGF165-stimulated, phospho-KDR ELISA
Sequence of KDR (P35968 20-1356): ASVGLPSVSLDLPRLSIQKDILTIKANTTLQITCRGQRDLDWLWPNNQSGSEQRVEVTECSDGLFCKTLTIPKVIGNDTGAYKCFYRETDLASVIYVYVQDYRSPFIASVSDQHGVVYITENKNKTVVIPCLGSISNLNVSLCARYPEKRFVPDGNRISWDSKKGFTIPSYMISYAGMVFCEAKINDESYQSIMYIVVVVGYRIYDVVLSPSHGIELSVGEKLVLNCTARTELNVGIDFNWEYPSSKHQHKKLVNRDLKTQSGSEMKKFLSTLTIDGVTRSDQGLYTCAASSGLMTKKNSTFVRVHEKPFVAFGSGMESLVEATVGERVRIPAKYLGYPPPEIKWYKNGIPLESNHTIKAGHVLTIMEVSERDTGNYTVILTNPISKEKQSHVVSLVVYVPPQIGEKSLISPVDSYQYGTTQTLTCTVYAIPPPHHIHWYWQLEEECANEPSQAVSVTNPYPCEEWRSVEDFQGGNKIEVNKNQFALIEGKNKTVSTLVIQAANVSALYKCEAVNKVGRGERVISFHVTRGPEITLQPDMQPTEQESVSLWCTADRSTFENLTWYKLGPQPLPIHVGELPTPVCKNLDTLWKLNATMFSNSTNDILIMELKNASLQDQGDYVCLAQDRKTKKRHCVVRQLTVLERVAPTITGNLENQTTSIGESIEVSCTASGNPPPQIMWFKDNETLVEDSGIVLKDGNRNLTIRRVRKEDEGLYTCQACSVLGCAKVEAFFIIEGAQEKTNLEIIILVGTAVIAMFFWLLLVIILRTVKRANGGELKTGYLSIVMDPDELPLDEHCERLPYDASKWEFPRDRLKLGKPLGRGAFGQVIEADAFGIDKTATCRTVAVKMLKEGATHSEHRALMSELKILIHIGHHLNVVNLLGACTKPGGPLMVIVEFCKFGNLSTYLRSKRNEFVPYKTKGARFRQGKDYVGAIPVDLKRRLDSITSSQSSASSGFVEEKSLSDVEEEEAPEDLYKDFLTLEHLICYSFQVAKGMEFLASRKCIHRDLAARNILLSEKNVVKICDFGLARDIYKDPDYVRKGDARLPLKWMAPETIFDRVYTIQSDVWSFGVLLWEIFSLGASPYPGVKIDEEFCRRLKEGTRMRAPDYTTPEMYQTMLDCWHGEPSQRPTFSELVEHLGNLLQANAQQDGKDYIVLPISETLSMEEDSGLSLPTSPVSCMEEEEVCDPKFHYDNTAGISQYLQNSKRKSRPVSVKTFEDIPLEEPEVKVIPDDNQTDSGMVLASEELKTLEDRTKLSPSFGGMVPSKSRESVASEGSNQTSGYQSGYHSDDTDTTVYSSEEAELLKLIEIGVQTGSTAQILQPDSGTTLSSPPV
Procedure, shortened: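 Read-out: phospho-KDR ELISA on cell lysates, quantified against a phospho-KDR standard, normalised to VEGF-stimulated DMSO (100%) and unstimulated (0%) wells, IC50 by 4-parameter fit. Cells were 24 h serum-starved HUVEC given compound for 1 h, then 100 ng/mL VEGF165 for 5 min.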

Row | IC50 (AXL) [nM] | IC50 (KDR) [nM] | Compound
1 | ≤ 100 | ≤ 100 | COc1cc2nccc(Oc3ccc(NC(=O)c4ccc(C)n(-c5ccncc5F)c4=O)cc3F)c2nc1OC [Compound 220, N-[4-[(6,7-Dimethoxy-1,5-naphthyridin-4-yl)oxy]-3-fluorophenyl]-1-(3-fluoropyridin-4-yl)-6-methyl-2-oxopyridine-3-carboxamide]
2 | 100 to 300 | 100 to 300 | Cc1ccc(C(=O)Nc2ccc(Oc3ccnc4cnc(Cl)cc34)c(F)c2)c(=O)n1-c1ccc(F)cn1 [Compound 54A, N-[4-[(6-Chloro-1,7-naphthyridin-4-yl)oxy]-3-fluorophenyl]-1-(5-fluoropyridin-2-yl)-6-methyl-2-oxopyridine-3-carboxamide]
3 | ≤ 100 | ≤ 100 | COc1cc2nccc(Oc3ccc(NC(=O)c4ccc(C)n(-c5ccnc(C)c5)c4=O)cc3F)c2nc1OC [Compound 230, N-[4-[(6,7-Dimethoxy-1,5-naphthyridin-4-yl)oxy]-3-fluorophenyl]-6-methyl-1-(2-methylpyridin-4-yl)-2-oxopyridine-3-carboxamide]
4 | ≤ 100 | 300 to 1000 | COc1cc2nccc(Oc3ccc(NC(=O)c4c5n(cc(-c6ccc(C)s6)c4=O)CCOC5)cc3)c2nc1OC [Compound 305, N-[4-[(6,7-Dimethoxy-1,5-naphthyridin-4-yl)oxy]phenyl]-7-(5-methylthiophen-2-yl)-8-oxo-3,4-dihydro-1H-pyrido[2,1-c][1,4]oxazine-9-carboxamide]
5 | ≤ 100 | ≤ 100 | COCCOc1cc2nccc(Oc3ccc(NC(=O)c4c(C)n(C)c(C)c(-c5ccco5)c4=O)cc3F)c2nc1OC [Compound 254, N-[3-Fluoro-4-[[6-methoxy-7-(2-methoxyethoxy)-1,5-naphthyridin-4-yl]oxy]phenyl]-5-(furan-2-yl)-1,2,6-trimethyl-4-oxopyridine-3-carboxamide]
6 | ≤ 100 | ≤ 100 | COCCOc1cc2nccc(Oc3ccc(NC(=O)c4cnc(C)c(-c5ccco5)c4O)cc3F)c2nc1OC [Compound 260, N-[3-Fluoro-4-[[6-methoxy-7-(2-methoxyethoxy)-1,5-naphthyridin-4-yl]oxy]phenyl]-5-(furan-2-yl)-4-hydroxy-6-methylpyridine-3-carboxamide]
7 | ≤ 100 | ≤ 100 | COc1cc2c(Oc3ccc(NC(=O)c4c(C)ncc(-c5ccccn5)c4O)cc3F)ccnc2cn1 [Compound 223, N-[3-Fluoro-4-[(6-methoxy-1,7-naphthyridin-4-yl)oxy]phenyl]-4-hydroxy-2-methyl-5-pyridin-2-ylpyridine-3-carboxamide]
8 | ≤ 100 | ≤ 100 | COc1cc(-n2c(C)ccc(C(=O)Nc3ccc(Oc4ccnc5cc(OC)c(OC)nc45)c(F)c3)c2=O)ccn1 [Compound 226, N-[4-[(6,7-Dimethoxy-1,5-naphthyridin-4-yl)oxy]-3-fluorophenyl]-1-(2-methoxypyridin-4-yl)-6-methyl-2-oxopyridine-3-carboxamide]
9 | ≤ 100 | 300 to 1000 | COc1cc2nccc(Oc3ccc(NC(=O)c4c5n(cc(-c6ccc(C)s6)c4=O)CCOC5)cc3F)c2nc1OC [Compound 304, N-[4-[(6,7-Dimethoxy-1,5-naphthyridin-4-yl)oxy]-3-fluorophenyl]-7-(5-methylthiophen-2-yl)-8-oxo-3,4-dihydro-1H-pyrido[2,1-c][1,4]oxazine-9-carboxamide]
10 | ≤ 100 | 300 to 1000 | COc1cc2nccc(Oc3ccc(NC(=O)c4c5n(cc(-c6ccoc6)c4=O)CCOC5)cc3F)c2nc1OC [Compound 306, N-[4-[(6,7-Dimethoxy-1,5-naphthyridin-4-yl)oxy]-3-fluorophenyl]-7-(furan-3-yl)-8-oxo-3,4-dihydro-1H-pyrido[2,1-c][1,4]oxazine-9-carboxamide]
11 | ≤ 100 | ≤ 100 | COc1ccc2nccc(Oc3ccc(NC(=O)c4ccc(C)n(-c5ccc(F)cn5)c4=O)cc3F)c2n1 [Compound 47, N-[3-Fluoro-4-[(6-methoxy-1,5-naphthyridin-4-yl)oxy]phenyl]-1-(5-fluoropyridin-2-yl)-6-methyl-2-oxopyridine-3-carboxamide]
12 | ≤ 100 | ≤ 100 | COc1cc2nccc(Oc3ccc(NC(=O)c4c(C)ccn(-c5ccc(F)cn5)c4=O)cc3F)c2nc1OC [Compound 41, N-[4-[(6,7-Dimethoxy-1,5-naphthyridin-4-yl)oxy]-3-fluorophenyl]-1-(5-fluoropyridin-2-yl)-4-methyl-2-oxopyridine-3-carboxamide]
13 | ≤ 100 | 100 to 300 | COc1cc2nccc(Oc3ccc(NC(=O)c4ccc(C)n(-c5cccnn5)c4=O)cc3F)c2nc1OC [Compound 234, N-[4-[(6,7-Dimethoxy-1,5-naphthyridin-4-yl)oxy]-3-fluorophenyl]-6-methyl-2-oxo-1-pyridazin-3-ylpyridine-3-carboxamide]
14 | ≤ 100 | 300 to 1000 | COc1cc2nccc(Oc3ccc(NC(=O)c4c5n(cc(-c6ccoc6)c4=O)CCOC5)cc3)c2nc1OC [Compound 310, N-[4-[(6,7-Dimethoxy-1,5-naphthyridin-4-yl)oxy]phenyl]-7-(furan-3-yl)-8-oxo-3,4-dihydro-1H-pyrido[2,1-c][1,4]oxazine-9-carboxamide]
15 | ≤ 100 | 300 to 1000 | COc1cc2nccc(Oc3ccc(NC(=O)c4c5n(cc(-c6cc(C)cs6)c4=O)CCOC5)cc3)c2nc1OC [Compound 303, N-[4-[(6,7-Dimethoxy-1,5-naphthyridin-4-yl)oxy]phenyl]-7-(4-methylthiophen-2-yl)-8-oxo-3,4-dihydro-1H-pyrido[2,1-c][1,4]oxazine-9-carboxamide]
16 | ≤ 100 | 300 to 1000 | Cc1ccc(C(=O)Nc2ccc(Oc3ccnc4cccnc34)c(F)c2)c(=O)n1-c1ccc(F)cn1 [Compound 48, N-[3-Fluoro-4-(1,5-naphthyridin-4-yloxy)phenyl]-1-(5-fluoropyridin-2-yl)-6-methyl-2-oxopyridine-3-carboxamide]
17 | ≤ 100 | 100 to 300 | COc1cc2nccc(Oc3ccc(NC(=O)c4c5n(c(C)c(-c6ccsc6)c4=O)CCOC5)cc3F)c2nc1OC [Compound 307, N-[4-[(6,7-Dimethoxy-1,5-naphthyridin-4-yl)oxy]-3-fluorophenyl]-6-methyl-8-oxo-7-thiophen-3-yl-3,4-dihydro-1H-pyrido[2,1-c][1,4]oxazine-9-carboxamide]
18 | ≤ 100 | 300 to 1000 | COc1cc2nccc(Oc3ccc(NC(=O)c4ccc(C)n(-c5ccnc(O)c5)c4=O)cc3F)c2nc1OC [Compound 232, N-[4-[(6,7-Dimethoxy-1,5-naphthyridin-4-yl)oxy]-3-fluorophenyl]-1-(2-hydroxypyridin-4-yl)-6-methyl-2-oxopyridine-3-carboxamide]
19 | ≤ 100 | ≤ 100 | COc1cnc2c(Oc3ccc(NC(=O)c4ccc(C)n(-c5ncc(F)cc5C)c4=O)cc3F)ccnc2c1 [Compound 52, N-[3-Fluoro-4-[(7-methoxy-1,5-naphthyridin-4-yl)oxy]phenyl]-1-(5-fluoro-3-methylpyridin-2-yl)-6-methyl-2-oxopyridine-3-carboxamide]
